Measured values reported in ChEMBL document CHEMBL1201862, “PubChem BioAssay data set” (2004).
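Five compound concentrations were applied to cells in 96-well plates for 48 hours; endpoints were derived by simple linear interpolation of the resulting dose-response curve. Abbreviation: GI50, concentration required for 50% inhibition of growth.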 Calls of active or inactive are those of the source. Cut-off read from the data, not from the text of the source: active = GI50 up to about 1.1 µM and inactive = higher.

What was measured:
Assay in all cases: NCI-60 cell line screen, 48 h
786-0 = tested on: 786-0
A498 = tested on: A498
A549 = tested on: A549
ACHN = tested on: ACHN
BT-549 = tested on: BT-549
CAKI-1 = tested on: CAKI-1
CCRF-CEM = tested on: CCRF-CEM
COLO 205 = tested on: COLO 205
DU-145 = tested on: DU-145
EKVX = tested on: EKVX
HCC 2998 = tested on: HCC 2998
HCT-116 = tested on: HCT-116
HCT-15 = tested on: HCT-15
HL-60 = tested on: HL-60
HOP-62 = tested on: HOP-62
HOP-92 = tested on: HOP-92
Hs-578T = tested on: Hs-578T
IGROV-1 = tested on: IGROV-1
K562 = tested on: K562
KM12 = tested on: KM12
LOX IMVI = tested on: LOX IMVI
M14 = tested on: M14
MCF7 = tested on: MCF7
MDA-MB-231 = tested on: MDA-MB-231
MDA-MB-435 = tested on: MDA-MB-435
MDA-N = tested on: MDA-N
MOLT-4 = tested on: MOLT-4
Malme-3M = tested on: Malme-3M
NCI-H226 = tested on: NCI-H226
NCI-H23 = tested on: NCI-H23
NCI-H460 = tested on: NCI-H460
NCI-H522 = tested on: NCI-H522
NCI/ADR-RES = tested on: NCI/ADR-RES
OVCAR-4 = tested on: OVCAR-4
OVCAR-5 = tested on: OVCAR-5
PC-3 = tested on: PC-3
RPMI-8226 = tested on: RPMI-8226
RXF 393 = tested on: RXF 393
SF-268 = tested on: SF-268
SF-295 = tested on: SF-295
SK-MEL-28 = tested on: SK-MEL-28
SK-MEL-2 = tested on: SK-MEL-2
SK-MEL-5 = tested on: SK-MEL-5
SK-OV-3 = tested on: SK-OV-3
SN12C = tested on: SN12C
SNB-19 = tested on: SNB-19
SR = tested on: SR
SW-620 = tested on: SW-620
T47D = tested on: T47D
TK-10 = tested on: TK-10
U-251 = tested on: U-251
UACC-257 = tested on: UACC-257
UACC-62 = tested on: UACC-62
UO-31 = tested on: UO-31
HT-29 = tested on: HT-29
OVCAR-3 = tested on: OVCAR-3
OVCAR-8 = tested on: OVCAR-8
SF-539 = tested on: SF-539
SNB-75 = tested on: SNB-75

Cc1ccc(-c2nc3cc(F)c(N4CCN(C)CC4)cc3[nH]2)cc1
GI50 (786-0): 17.6 µM (inactive)
GI50 (A498): 32.7 µM (inactive)
GI50 (A549): 19.1 µM (inactive)
GI50 (ACHN): 21.1 µM (inactive)
GI50 (BT-549): 22.1 µM (inactive)
GI50 (CAKI-1): 32.1 µM (inactive)
GI50 (CCRF-CEM): 23.4 µM (inactive)
GI50 (COLO 205): 15.9 µM (inactive)
GI50 (DU-145): 31.1 µM (inactive)
GI50 (EKVX): 23.1 µM (inactive)
GI50 (HCC 2998): 11.9 µM (inactive)
GI50 (HCT-116): 19.6 µM (inactive)
GI50 (HCT-15): 6.32 µM
GI50 (HL-60): 21.4 µM (inactive)
GI50 (HOP-62): 15.8 µM (inactive)
GI50 (HOP-92): 66.5 µM (inactive)
GI50 (Hs-578T): 10.7 µM (inactive)
GI50 (IGROV-1): 22.7 µM (inactive)
GI50 (K562): 16.4 µM (inactive)
GI50 (KM12): 14 µM (inactive)
GI50 (LOX IMVI): 27.9 µM (inactive)
GI50 (M14): 16.7 µM (inactive)
GI50 (MCF7): 15.3 µM (inactive)
GI50 (MDA-MB-231): 71.3 µM (inactive)
GI50 (MDA-MB-435): 22.4 µM (inactive)
GI50 (MDA-N): 32.4 µM (inactive)
GI50 (MOLT-4): 22.8 µM (inactive)
GI50 (Malme-3M): 15.3 µM (inactive)
GI50 (NCI-H226): 8.3 µM (inactive)
GI50 (NCI-H23): 22.2 µM (inactive)
GI50 (NCI-H460): 16.9 µM (inactive)
GI50 (NCI-H522): 14.5 µM (inactive)
GI50 (NCI/ADR-RES): 28.8 µM (inactive)
GI50 (OVCAR-4): 17.1 µM (inactive)
GI50 (OVCAR-5): 21.9 µM (inactive)
GI50 (PC-3): 24.1 µM (inactive)
GI50 (RPMI-8226): 33.6 µM (inactive)
GI50 (RXF 393): 18.5 µM (inactive)
GI50 (SF-268): 15.3 µM (inactive)
GI50 (SF-295): 16.6 µM (inactive)
GI50 (SK-MEL-28): 26.2 µM (inactive)
GI50 (SK-MEL-2): 17.1 µM (inactive)
GI50 (SK-MEL-5): 11.4 µM (inactive)
GI50 (SK-OV-3): 23.4 µM (inactive)
GI50 (SN12C): 54.1 µM (inactive)
GI50 (SNB-19): 22 µM (inactive)
GI50 (SR): 32.6 µM (inactive)
GI50 (SW-620): 37.1 µM (inactive)
GI50 (T47D): 23 µM (inactive)
GI50 (TK-10): 22.2 µM (inactive)
GI50 (U-251): 29.5 µM (inactive)
GI50 (UACC-257): 17.2 µM (inactive)
GI50 (UACC-62): 16.3 µM (inactive)
GI50 (UO-31): 13.9 µM (inactive)

CCCCC(=O)Oc1ccc2c(C)cc(=O)oc2c1
GI50 (786-0): > 100 µM (inactive)
GI50 (A498): > 100 µM (inactive)
GI50 (A549): > 100 µM (inactive)
GI50 (ACHN): > 100 µM (inactive)
GI50 (BT-549): > 100 µM (inactive)
GI50 (CAKI-1): > 100 µM (inactive)
GI50 (CCRF-CEM): > 100 µM (inactive)
GI50 (COLO 205): > 100 µM (inactive)
GI50 (DU-145): > 100 µM (inactive)
GI50 (EKVX): > 100 µM (inactive)
GI50 (HCC 2998): 88.9 µM (inactive)
GI50 (HCT-116): > 100 µM (inactive)
GI50 (HL-60): > 100 µM (inactive)
GI50 (HOP-62): > 100 µM (inactive)
GI50 (HOP-92): 26.2 µM (inactive)
GI50 (HT-29): > 100 µM (inactive)
GI50 (Hs-578T): > 100 µM (inactive)
GI50 (IGROV-1): > 100 µM (inactive)
GI50 (K562): > 100 µM (inactive)
GI50 (KM12): > 100 µM (inactive)
GI50 (LOX IMVI): > 100 µM (inactive)
GI50 (M14): > 100 µM (inactive)
GI50 (MCF7): > 100 µM (inactive)
GI50 (MDA-MB-231): > 100 µM (inactive)
GI50 (MDA-MB-435): > 100 µM (inactive)
GI50 (MDA-N): > 100 µM (inactive)
GI50 (MOLT-4): > 100 µM (inactive)
GI50 (Malme-3M): > 100 µM (inactive)
GI50 (NCI-H226): > 100 µM (inactive)
GI50 (NCI-H23): > 100 µM (inactive)
GI50 (NCI-H460): > 100 µM (inactive)
GI50 (NCI-H522): > 100 µM (inactive)
GI50 (NCI/ADR-RES): > 100 µM (inactive)
GI50 (OVCAR-3): > 100 µM (inactive)
GI50 (OVCAR-4): > 100 µM (inactive)
GI50 (OVCAR-5): > 100 µM (inactive)
GI50 (OVCAR-8): > 100 µM (inactive)
GI50 (PC-3): > 100 µM (inactive)
GI50 (RPMI-8226): > 100 µM (inactive)
GI50 (RXF 393): > 100 µM (inactive)
GI50 (SF-268): > 100 µM (inactive)
GI50 (SF-295): > 100 µM (inactive)
GI50 (SF-539): > 100 µM (inactive)
GI50 (SK-MEL-28): > 100 µM (inactive)
GI50 (SK-MEL-2): > 100 µM (inactive)
GI50 (SK-MEL-5): > 100 µM (inactive)
GI50 (SN12C): > 100 µM (inactive)
GI50 (SNB-19): > 100 µM (inactive)
GI50 (SNB-75): > 100 µM (inactive)
GI50 (SR): > 100 µM (inactive)
GI50 (SW-620): > 100 µM (inactive)
GI50 (T47D): > 100 µM (inactive)
GI50 (TK-10): > 100 µM (inactive)
GI50 (U-251): > 100 µM (inactive)
GI50 (UACC-257): > 100 µM (inactive)
GI50 (UACC-62): > 100 µM (inactive)
GI50 (UO-31): > 100 µM (inactive)
